# Data as given in patent US20100150839A1, “Compositions and Methods for Modulating Cognitive Function” (Massachusetts Institute of Technology, priority 2005, published 2010).
# “And” between values parts separate entries of the source, which are not always exact repeats. Equal values may be shown once. “Also recorded” adds a separate entry of the source. Read-outs that look alike come from different tables or passages of the source.
# Legend:
# [1] = test system: cultured primary hippocampal neurons; experiment: Translation reporter assay: EGFP-αCaMKII 3′ UTR reporter mRNA transfected into neurons; format: cell-based, rat
# hippocampal brain slices = experiment: Metabolic labeling of newly synthesized proteins in hippocampal brain slices; format: cell-based
# [2] = test system: cultured hippocampal neurons; experiment: Metabolic pulse labeling (35S-methionine incorporation) in cultured hippocampal neurons; format: cell-based, rat; conditions: for Increase in translation levels: hippocampal neuronal cultures, 35S metabolic labeling
# hippocampal slices = format: cell-based, mice
# phospho-eIF4E (S209) = experiment: Western analysis of eIF4E phosphorylation; format: cell-based, rat
# Protocol: (§1) Western analysis. Homogenates were prepared in cold RIPA buffer containing protease inhibitors and phosphatase inhibitors. Hippocampal neurons were homogenized 8 minutes after stimulation. Hippocampal slices were frozen on dry ice 10 minutes after tetanization, and the CA1 and CA3 fields were microdissected and homogenized. Western analysis was performed with rabbit polyclonal antisera against dually-phosphorylated ERK1/2, phospho-S6 (S235/S236), phospho-eIF4E (S209), and phospho-4E-BP (S65) (Cell Signaling). […] Therefore, since 4E-BP2 is the most abundantly expressed 4E-BP in the brain, it is likely that the results reflected 4E-BP2 levels and phosphorylation state. Blots were stripped and reprobed with antisera directed against total ERK1/2, S6, eIF4E, and 4E-BP (Cell Signaling). Results were quantified with ImageJ (NIH), calculated as the ratio of phosphorylated species to […], and then normalized to the untreated control condition Staining of total protein with Ponceau-S confirmed equal loading.
# phospho-S6 (S235/S236) = experiment: Western analysis of S6 phosphorylation; format: cell-based, rat
# Protocol: as §1
# [3] = test system: dually-phosphorylated ERK1/2
# phospho-4E-BP (S65) = experiment: Western analysis of 4E-BP phosphorylation; format: cell-based, rat
# Protocol: as §1
# [4] = hippocampal brain slices (FIG. 9), agonist 10 uM or 50 uM
# [5] = cultured hippocampal neurons (FIG. 10), agonist 10 uM or 50 uM
# [6] = hippocampal cultures, Western Blot
molecule,measurement,setting,value
NC(CCCP(=O)(O)O)C(=O)O (centres unmarked) [AP5],Translation of EGFP-αCaMKII-A20 reporter mRNA,"[1]; spontaneous neuronal activity, pretreatment with AP5 (100 μM) and DNQX (10 μM) together",significantly inhibited
C[N+](C)(C)CCOC(N)=O [carbachol],Translation of endogenous neuronal mRNAs (metabolic labeling of newly synthesized proteins),hippocampal brain slices; [4],stimulate translation
same,Translation of endogenous neuronal mRNAs (metabolic labeling of newly synthesized proteins),[2]; [5],stimulate translation
actinomycin-D,Additional decrement in L-LTP,hippocampal slices,did not produce any additional decrement in L-LTP
same,Kinetic pattern of L-LTP inhibition,hippocampal slices,"distinct, delayed pattern of inhibition"
same,L-LTP magnitude at 60 min. post-tetanization,hippocampal slices,157±4% and 157±3%
same,L-LTP magnitude at 200 minutes,hippocampal slices,107±4% and 122±5%
same,Time after onset of tetanization during which L-LTP magnitude remained indistinguishable from untreated slices,hippocampal slices,approximately 75 minutes
"OCC(O)c1ccc(O)c(O)c1 (centres unmarked) [DHPG, 3,4-Dihydroxyphenylglycol]",Increase in phosphorylation of eIF4E,phospho-eIF4E (S209); [6],33%+/−3%
same,Increase in translation levels,[2],50%+/−20%
same,Increase in phosphorylation of S6,phospho-S6 (S235/S236); [6],52%+/−18%
O=[N+]([O-])c1cc2nc(O)c(O)nc2cc1[N+](=O)[O-] [DNQX],Translation of EGFP-αCaMKII-A20 reporter mRNA,[1],significantly inhibited
Oc1cc2c(cc1O)C(c1ccccc1)CNCC2 (centres unmarked) [SKF38393],Translation of endogenous neuronal mRNAs (metabolic labeling of newly synthesized proteins),hippocampal brain slices; [4],stimulate translation
same,Translation of endogenous neuronal mRNAs (metabolic labeling of newly synthesized proteins),[2]; [5],stimulate translation
NCCc1ccc(O)c(O)c1 [dopamine],Increase in translation levels,[2],77%+/−26%
CC(C)NCC(O)c1ccc(O)c(O)c1 (centres unmarked) [isoproteronol],Translation of endogenous neuronal mRNAs (metabolic labeling of newly synthesized proteins),hippocampal brain slices; [4],stimulate translation
same,Translation of endogenous neuronal mRNAs (metabolic labeling of newly synthesized proteins),[2]; [5],stimulate translation
CCCN1CCC[C@@H]2Cc3n[nH]cc3C[C@H]21 [quinpirole],Translation of endogenous neuronal mRNAs (metabolic labeling of newly synthesized proteins),hippocampal brain slices,stimulate translation
same,Translation of endogenous neuronal mRNAs (metabolic labeling of newly synthesized proteins),[2],stimulate translation
COc1ccc(C[C@H]2NC[C@H](O)[C@H]2OC(C)=O)cc1 [anisomycin],Additional decrement in L-LTP,hippocampal slices,did not produce any additional decrement in L-LTP
same,Kinetic pattern of L-LTP inhibition,hippocampal slices,progressive inhibition of L-LTP
same,L-LTP magnitude at 200 minutes,hippocampal slices,108±5% and 113±5%
N#CC(=C(/N)Sc1ccccc1N)/C(C#N)=C(\N)Sc1ccccc1N [U0126],Effect of pretreatment on agonist-induced increases in neuronal protein synthesis,hippocampal brain slices,blocked
same,Effect on DHPG-induced increase in phosphorylation of eIF4E,phospho-eIF4E (S209),blocked
same,Phosphorylation of eIF4E,phospho-eIF4E (S209),significantly inhibited; also recorded: significantly reduced
same,Translation of endogenous synaptodendritic mRNAs,synaptoneurosomes,significantly reduced
same,ERK phosphorylation (phospho-ERK levels),[3],entirely abolished
same,Phosphorylation of ERK,[3],significantly reduced
same,Phosphorylation of 4E-BP,phospho-4E-BP (S65),significantly inhibited
same,Bulk translation of endogenous transcripts (35S-methionine incorporation),[2],strongly inhibited
same,Effect of pretreatment on agonist-induced increases in neuronal protein synthesis,[2],blocked
same,Effect on DHPG-induced increase in translation rates,[2],blocked
same,Effect on dopamine-induced increase in translation,[2],blocked
same,Effect on spaced depolarization-induced increase in translation,[2],blocked
same,Effect of concurrent treatment on stimulated EGFP-αCaMKII-A20 mRNA translation,[1],significantly attenuated the effects of stimulation
same,Sensitivity of activity-induced reporter mRNA translation to inhibition,[1],persisted after mutation of the CPEs
same,"Translation of EGFP-αCaMKII-A20 reporter mRNA, combined pretreatment",[1],no additional inhibition
same,Effect on DHPG-induced increase in phosphorylation of S6,phospho-S6 (S235/S236),blocked
same,Phosphorylation of S6,phospho-S6 (S235/S236),significantly inhibited; also recorded: significantly reduced
Sp-cAMPS,Effect on translation (in words),[2],increased translation
"BDNF: brain derived neurotrophic factor; activates trkB (protein, UniProt P23560 19-247, looked up) Neurotrophic factor BDNF …: APMKEANIRGQGGLAYPGVRTHGTLESVNGPKAGSRGLTSLADTFEHVIEELLDEDQKVRPNEENNKDADLYTSRVMLSSQVPLEPPLLFLLEEYKNYLDAANMSMRVRRHSDPARRGELSVCDSISEWVTAADKKTAVDMSGGTVTVLEKVPVSKGQLKQYFYETKCNPMGYTKEGCRGIDKRHWNSQCRTTQSYVRALTMDSKKRIGWRFIRIDTSCVCTLTIKRGR",Stimulation of EGFP-αCaMKII-A20 mRNA translation,"[1]; 100 ng/mL BDNF for 4 hours, 40 μM bicuculline for 8 min., after U0126 preincubation and wash",significant increases
